Assay results taken from US7666890B2, “Synthesis and herbicidal activity of 1- (2-substituted benzo[d]thiazol-5-yl)-1H-1,2,4-triazol-5(4H)-one derivatives” (Huazhong Normal University, priority 2007, dated 2010).

Assays:
Assay in all cases: Test of herbicidal activities (greenhouse pot method)
Assay type in all cases: in vivo
Details in all cases: single dose 300 g ai./h, treated before/after germination, 15 days later, greenhouse pot
[1] = test system: Digiatria sanguinalis
How it was run: (§1)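 Weeds were sown in soil-filled pots at 15–30 °C and treated once by spray tower at 300 g ai./h, either before emergence or post-emergence at the 2-leaf stage, in three replicates with an untreated control. Symptoms were scored 15 days later into five classes from A (≥90%) to E (<50%).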

[2] = test system: Brassica juncea
How it was run: as §1

[3] = test system: Setaria viridis
How it was run: as §1

[4] = test system: Chenopodium album
How it was run: as §1

[5] = test system: Echinochloa crusgalli
How it was run: as §1

[6] = test system: Amaranthus retroflexus
How it was run: as §1

| SMILES | Herbicidal activity Digiatria sanguinalis (inhibition level) [1] | Herbicidal activity Brassica juncea (inhibition level) [2] | Herbicidal activity Setaria viridis (inhibition level) [3] | Herbicidal activity Chenopodium album (inhibition level) [4] | Herbicidal activity Echinochloa crusgalli (inhibition level) [5] | Herbicidal activity Amaranthus retroflexus (inhibition level) [6] |
| --- | --- | --- | --- | --- | --- | --- |
| Cc1nn(-c2cc3nc(S(=O)(=O)Cc4ccccc4)sc3cc2F)c(=O)n1C(F)F [Compound 51] | A (90 ≦ A ≦ 100%) | B (80 ≦ B < 90%) | A (90 ≦ A ≦ 100%) | B (80 ≦ B < 90%) | C (60 ≦ C < 80%) | A (90 ≦ A ≦ 100%) |
| Cc1nn(-c2cc3nc(S(=O)(=O)Cc4ccccc4)sc3cc2F)c(=O)n1C [Compound 34] | A (90 ≦ A ≦ 100%) | D (50 ≦ D < 60%) | A (90 ≦ A ≦ 100%) | C (60 ≦ C < 80%) | B (80 ≦ B < 90%) | B (80 ≦ B < 90%) |
| CCCCSc1nc2cc(-n3nc(C)n(C(F)F)c3=O)c(Cl)cc2s1 [Compound 97] | C (60 ≦ C < 80%) | B (80 ≦ B < 90%) | C (60 ≦ C < 80%) | B (80 ≦ B < 90%) | B (80 ≦ B < 90%) | B (80 ≦ B < 90%) |
| CC[S+]([O-])c1nc2cc(-n3nc(C)n(C(F)F)c3=O)c(Br)cc2s1 (stereo not drawn) [Compound 109] | B (80 ≦ B < 90%) | A (90 ≦ A ≦ 100%) | B (80 ≦ B < 90%) | A (90 ≦ A ≦ 100%) | A (90 ≦ A ≦ 100%) | B (80 ≦ B < 90%) |
| CCC[S+]([O-])c1nc2cc(-n3nc(C)n(C(F)F)c3=O)c(F)cc2s1 (stereo not drawn) [Compound 121] | C (60 ≦ C < 80%) | C (60 ≦ C < 80%) | D (50 ≦ D < 60%) | A (90 ≦ A ≦ 100%) | E (E < 50%) | D (50 ≦ D < 60%) |
| CCCSc1nc2cc(-n3nc(C(F)(F)F)n(C(F)F)c3=O)c(Br)cc2s1 [Compound 129] | A (90 ≦ A ≦ 100%) | C (60 ≦ C < 80%) | C (60 ≦ C < 80%) | A (90 ≦ A ≦ 100%) | A (90 ≦ A ≦ 100%) | A (90 ≦ A ≦ 100%) |
| Cc1nn(-c2cc3nc(S(=O)(=O)Cc4ccc(F)cc4F)sc3cc2F)c(=O)n1C(F)F [Compound 49] | C (60 ≦ C < 80%) | A (90 ≦ A ≦ 100%) | D (50 ≦ D < 60%) | B (80 ≦ B < 90%) | A (90 ≦ A ≦ 100%) | A (90 ≦ A ≦ 100%) |
| Cc1nn(-c2cc3nc(S(=O)(=O)Cc4cccc(Cl)c4)sc3cc2F)c(=O)n1C(F)F [Compound 53] | B (80 ≦ B < 90%) | A (90 ≦ A ≦ 100%) | D (50 ≦ D < 60%) | B (80 ≦ B < 90%) | C (60 ≦ C < 80%) | B (80 ≦ B < 90%) |
| Cc1nn(-c2cc3nc(SCc4cccs4)sc3cc2F)c(=O)n1C(F)F [Compound 73] | A (90 ≦ A ≦ 100%) | B (80 ≦ B < 90%) | B (80 ≦ B < 90%) | A (90 ≦ A ≦ 100%) | B (80 ≦ B < 90%) | A (90 ≦ A ≦ 100%) |
| Cc1nn(-c2cc3nc(S(=O)(=O)Cc4ccc(F)cc4F)sc3cc2Cl)c(=O)n1C(F)F [Compound 45] | A (90 ≦ A ≦ 100%) | B (80 ≦ B < 90%) | C (60 ≦ C < 80%) | B (80 ≦ B < 90%) | E (E < 50%) | A (90 ≦ A ≦ 100%) |
| CSc1nc2cc(-n3nc(C)n(C)c3=O)c(F)cc2s1 [Compound 31] | A (90 ≦ A ≦ 100%) | B (80 ≦ B < 90%) | B (80 ≦ B < 90%) | C (60 ≦ C < 80%) | B (80 ≦ B < 90%) | A (90 ≦ A ≦ 100%) |
| CCOC(=O)C(C)[S+]([O-])c1nc2cc(-n3nc(C)n(C(F)F)c3=O)c(Br)cc2s1 (stereo not drawn) [Compound 116] | C (60 ≦ C < 80%) | A (90 ≦ A ≦ 100%) | B (80 ≦ B < 90%) | B (80 ≦ B < 90%) | D (50 ≦ D < 60%) | B (80 ≦ B < 90%) |
| Cc1nn(-c2cc3nc(SCn4cnc5ccccc5c4=O)sc3cc2F)c(=O)n1C(F)F [Compound 74] | B (80 ≦ B < 90%) | B (80 ≦ B < 90%) | A (90 ≦ A ≦ 100%) | C (60 ≦ C < 80%) | A (90 ≦ A ≦ 100%) | B (80 ≦ B < 90%) |
| Cc1nn(-c2cc3nc(SCc4ccccc4)sc3cc2Cl)c(=O)n1C(F)F [Compound 2] | C (60 ≦ C < 80%) | B (80 ≦ B < 90%) | B (80 ≦ B < 90%) | E (E < 50%) | C (60 ≦ C < 80%) | A (90 ≦ A ≦ 100%) |
| CCSc1nc2cc(-n3nc(C)n(C(F)F)c3=O)c(F)cc2s1 [Compound 84] | A (90 ≦ A ≦ 100%) | C (60 ≦ C < 80%) | B (80 ≦ B < 90%) | A (90 ≦ A ≦ 100%) | A (90 ≦ A ≦ 100%) | B (80 ≦ B < 90%) |
| COc1cccc(CSc2nc3cc(-n4nc(C)n(C(F)F)c4=O)c(F)cc3s2)c1 [Compound 17] | E (E < 50%) | A (90 ≦ A ≦ 100%) | B (80 ≦ B < 90%) | B (80 ≦ B < 90%) | C (60 ≦ C < 80%) | A (90 ≦ A ≦ 100%) |
| Cc1nn(-c2cc3nc(SCc4cccc(Br)c4)sc3cc2F)c(=O)n1C(F)F [Compound 21] | B (80 ≦ B < 90%) | B (80 ≦ B < 90%) | E (E < 50%) | B (80 ≦ B < 90%) | C (60 ≦ C < 80%) | A (90 ≦ A ≦ 100%) |
| Cc1nn(-c2cc3nc(SCc4csc(Cl)n4)sc3cc2F)c(=O)n1C(F)F [Compound 10] | C (60 ≦ C < 80%) | A (90 ≦ A ≦ 100%) | C (60 ≦ C < 80%) | C (60 ≦ C < 80%) | B (80 ≦ B < 90%) | B (80 ≦ B < 90%) |
| Cc1nn(-c2cc3nc(SCc4cccc(Cl)c4)sc3cc2F)c(=O)n1C(F)F [Compound 23] | C (60 ≦ C < 80%) | E (E < 50%) | D (50 ≦ D < 60%) | D (50 ≦ D < 60%) | C (60 ≦ C < 80%) | A (90 ≦ A ≦ 100%) |
| C=CCS(=O)(=O)c1nc2cc(-n3nc(C)n(C(F)F)c3=O)c(Br)cc2s1 [Compound 60] | A (90 ≦ A ≦ 100%) | A (90 ≦ A ≦ 100%) | C (60 ≦ C < 80%) | B (80 ≦ B < 90%) | B (80 ≦ B < 90%) | A (90 ≦ A ≦ 100%) |
| CCCCS(=O)(=O)c1nc2cc(-n3nc(C)n(C(F)F)c3=O)c(F)cc2s1 [Compound 63] | A (90 ≦ A ≦ 100%) | B (80 ≦ B < 90%) | C (60 ≦ C < 80%) | A (90 ≦ A ≦ 100%) | B (80 ≦ B < 90%) | A (90 ≦ A ≦ 100%) |
